According to patent publication US20140335179A1, “[…] OF ATORVASTATIN HEMICALCIUM” (DSM SINOCHEM PHARMACEUTICALS NETHERLANDS B.V., priority 2011, published 2014):
Where “and” joins values, the source holds several entries; their conditions need not be identical. Identical values can stand only once.

What was measured:
[1] = Determination of intrinsic dissolution rate (IDR), stationary disc method, USP 24 apparatus; type: physicochemical; conditions: 37°C, 100 rpm, hemi calcium salt; for IDR, mean value: 50 mM sodium dihydrogen phosphate buffer pH 6.8 with 2% w/v sodium lauryl sulphate
Procedure: IDR of crystalline and amorphous atorvastatin hemi-calcium samples was performed by the stationary disc method using USP 24 apparatus. The discs were prepared by compacting 100 mg of powder at 800 psi pressure in a hydraulic press (Hydraulic Unit Model 3912, Carver Inc., WI) with a dwell time of 15 sec, in 8 mm punch die set (surface area 0.5 cm^2). The dissolution studies were performed in 500 ml of 50 mM sodium dihydrogen phosphate buffer (pH 6.8) containing 2% w/v sodium lauryl sulphate maintained at a temperature of 37±0.5° C. and a rotational speed of 100 rpm. Samples were withdrawn at regular intervals, replaced with dissolution medium, and analyzed by UV spectrophotometry at 242 nm up to 60 minutes.

[2] = mean value of 35 separate batches
Procedure: • Instrument: The PSD was determined using a Malvern Mastersizer 2000 equipped with hydro 2000S(A), flow cell, Fourier lenses and a multi-element detector • Data handling system: Malvern Mastersizer 2000 version 5.21 • Technique used: Wet method • Optical parameters: Optical presentation comprising of: • Particle RI: 1.5 • Absorption: 0 • Dispersant RI: 1.375 or 1.4 • Analysis Model: General purpose • Sample measurement snaps: 5000 • Background meas. snaps: 5000 • No. of measurement cycles: 5 • Delay between measurements: 5 sec • Preparation of sample solution: About 25 mg of the sample was weighed in a beaker and about 20 mL of dispersion medium was added with constant stirring and sonification for 30 sec resulting in a uniform dispersion. After sonification the measurement was performed after the obscure value was stabilized between 10-20% • Procedure: • a. The flow cell was assembled to the instrument • b. Dispersion medium poured to Hydro 2000S(A) unit • c. Stirrer speed was set at 2200 rpm • d. Instrument was aligned after feeding the required parameters • e. Background was measured • f. Sample was analyzed by recording five measurements for each sample preparation and the mean RSD values were collected at D(v, 0.1), D(v, 0.5) and D(v, 0.9)

[3] = Specific surface area determination by nitrogen gas sorption (BET); type: physicochemical; conditions: individual samples, hemi calcium salt
Procedure: Specific surface area of the samples was determined using nitrogen gas sorption (Smartsorb, Smart Instruments, Mumbai, India). Prior to measurements, weighed samples were regenerated by degassing to remove moisture and contamination. The regenerated sample was dipped in liquid nitrogen and the quantity of the adsorbed gas was measured using thermal conductivity detector and then integrated using electronic circuit in terms of counts. The instrument was calibrated by injecting known quantity of nitrogen. The measured parameters were then used to calculate surface area of the sample by employing the adsorption theories of Brunauer, Emmett and Teller (BET).

SMILES	IDR, mean value [1]	PSD d10 [2]	PSD d50 [2]	PSD d90 [2]	surface area [3]	IDR values of three samples ([1]; three different micronized samples of the Example, pH 6.8 buffer with 2% SLS)
CC(C)c1c(C(=O)Nc2ccccc2)c(-c2ccccc2)c(-c2ccc(F)cc2)n1CC[C@@H](O)C[C@@H](O)CC(=O)O.CC(C)c1c(C(=O)Nc2ccccc2)c(-c2ccccc2)c(-c2ccc(F)cc2)n1CC[C@@H](O)C[C@@H](O)CC(=O)O.CC(C)c1c(C(=O)Nc2ccccc2)c(-c2ccccc2)c(-c2ccc(F)cc2)n1CC[C@@H](O)C[C@@H](O)CC(=O)[O-].CC(C)c1c(C(=O)Nc2ccccc2)c(-c2ccccc2)c(-c2ccc(F)cc2)n1CC[C@@H](O)C[C@@H](O)CC(=O)[O-].[Ca+2] (relative stereo) [amorphous atorvastatin, [R-(R*,R*)]-2-(4-fluorophenyl)-β,δ-dihydroxy-5-(1-methylethyl)-3-phenyl-4-[(phenylamino)carbonyl]-1H-pyrrole-1-heptanoic acid hemi calcium salt, reference compound]	0.281 mg/cm^2/min					
CC(C)c1c(C(=O)Nc2ccccc2)c(-c2ccccc2)c(-c2ccc(F)cc2)n1CC[C@@H](O)C[C@@H](O)CC(=O)O.CC(C)c1c(C(=O)Nc2ccccc2)c(-c2ccccc2)c(-c2ccc(F)cc2)n1CC[C@@H](O)C[C@@H](O)CC(=O)O.CC(C)c1c(C(=O)Nc2ccccc2)c(-c2ccccc2)c(-c2ccc(F)cc2)n1CC[C@@H](O)C[C@@H](O)CC(=O)[O-].CC(C)c1c(C(=O)Nc2ccccc2)c(-c2ccccc2)c(-c2ccc(F)cc2)n1CC[C@@H](O)C[C@@H](O)CC(=O)[O-].[Ca+2] (relative stereo) [crystalline atorvastatin hemi-calcium having a well-defined ] [[R-(R*,R*)]-2-(4-fluorophenyl)-β,δ-dihydroxy-5-(1-methylethyl)-3-phenyl-4-[(phenylamino)carbonyl]-1H-pyrrole-1-heptanoic acid hemi calcium salt]	0.132 mg/cm^2/min	3 μm	6 μm	12 μm	8.550±0.051 m^2/g and 8.384±0.303 m^2/g and 8.684±0.216 m^2/g	0.146±0.013 mg/cm^2/min and 0.130±0.017 mg/cm^2/min and 0.109±0.006 mg/cm^2/min
